# Data: publication PMC11249646, “Small-Molecule Disruptors of the Interaction between Calcium- and Integrin-Binding Protein 1 and Integrin αIIbβ3 as Novel Antiplatelet Agents” (ACS Pharmacology & Translational Science, 2024)
# Read-outs that look alike come from different tables or passages of the source.
# Assays:
# [1] = target: T1, CIB1 and αIIb interaction (CIB1-GST : F-αIIb peptide) (Homo sapiens, UniProt Q99828); experiment: FP assay, 1536-well qHTS format (primary and confirmatory screen); assay type: binding; conditions: for Curve Class (confirmatory screen) / CONFIRMATORY SCREEN Curve Class: qHTS curve class
# T1 construct: made in house; host or cells: BL-21 plus RIL cells (E. coli)
# T1 sequence (Q99828 1-191): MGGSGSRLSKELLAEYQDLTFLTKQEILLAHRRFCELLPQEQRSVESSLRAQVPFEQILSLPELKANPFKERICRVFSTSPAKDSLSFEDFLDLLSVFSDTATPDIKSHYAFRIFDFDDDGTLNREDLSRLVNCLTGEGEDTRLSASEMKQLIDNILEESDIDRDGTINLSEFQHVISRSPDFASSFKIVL
# [2] = target: T2, GST-CIB1 : F-scrambled peptide (Homo sapiens, UniProt Q99828); experiment: FP scrambled-peptide counter screen, 1536-well format; assay type: binding; conditions: for Curve Class (counterscreen) / COUNTERSCREEN Curve Class: qHTS curve class; for IC50: read-out: IC50 [μM] (counterscreen)
# T2 construct: made in house; host or cells: BL-21 plus RIL cells (E. coli)
# T2 sequence (Q99828 1-191): T1 sequence (Q99828 1-191)
# [3] = confirmatory screen, negative sign = inhibitory curve
# [4] = confirmatory screen, read-out: IC50 [μM] (confirmatory screen)
# [5] = qHTS FP screen hits, Table S2, negative = inhibition
# [6] = qHTS FP screen hits, Table S2, one class per curve where COUNT > 1, negative sign = inhibitory curve
# [7] = qHTS FP screen hits, Table S2, read-out: IC50
# [8] = counterscreen, negative sign = inhibitory curve
# [9] = Table S3, confirmatory screen, a negative sign marks inhibitory curves
# [10] = Table S3, confirmatory screen, negative = inhibition
# [11] = qHTS primary screen hits, Table S2, negative = inhibition
# [12] = qHTS primary screen hits, Table S2, negative sign = inhibitory curve, several classes where COUNT > 1
# [13] = qHTS primary screen hits, Table S2, read-out: IC50
# [14] = Table S3, counterscreen, a negative sign marks inhibitory curves
# [15] = Table S3, counterscreen, negative = inhibition
# [16] = qHTS primary screen hits, Table S2, negative sign = inhibitory curve
# [17] = Table S3, counterscreen, YES/NO call
# [18] = Table S3, confirmatory screen, YES/NO call
# [19] = Table S3, confirmatory screen, read-out: IC50 [μM] (confirmatory screen)
SMILES,Efficacy (%) (confirmatory screen) ([1]; confirmatory screen),"Confirm? (confirmatory screen) ([1]; confirmatory screen, YES/NO)","Curve Class (confirmatory screen) [1, 3]","IC50 [1, 4] [µM]","Efficacy (%) [1, 5] [%]","Curve Class [1, 6]","IC50 [1, 7] [µM]",Efficacy (%) (counterscreen) ([2]; counterscreen),"Curve Class (counterscreen) [2, 8]",IC50 ([2]; counterscreen) [µM],"Curve Class (confirmatory screen) [1, 9]","Efficacy (%) (confirmatory screen) [1, 10]","Efficacy (%) [1, 11] [%]","Curve Class [1, 12]","IC50 [1, 13] [µM]","Curve Class (counterscreen) [2, 14]","Efficacy (%) (counterscreen) [2, 15]","IC50 ([2]; Table S3, counterscreen) [µM]",further results
C=C1[C@@H](C)[C@H]2[C@H](Cc3ccccc3)NC(=O)[C@]23OC(=O)/C=C/C(=O)CCC[C@@H](C)C/C=C/[C@H]3[C@@H]1O [NCGC00388356-01],-94,YES,-1.1,10,-73,-1.2,20,-57,-1.2,5.6,–,–,–,–,–,–,–,–,–
O=c1[nH]c(=O)c2nc3ccccc3nc2[nH]1 [NCGC00015021-05],-58,YES,-2.2,44.7,-54,–,33.5,-65,-2.2,35.5,–,–,–,–,–,–,–,–,–
CCOc1ccc(CCNC(=O)c2ccc(N3N=C(C)CC3=O)cc2)cc1OCC.O=C(O)C(F)(F)F [NCGC00241439-01],–,–,–,–,–,–,–,–,–,–,4,-41,-42,-1.2,22.4,4,-33,–,–
Nc1ccc(O)c([N+](=O)[O-])c1 [NCGC00091261-03],-127,YES,-1.1,50.1,-59,-2.2,113,-105,-2.1,63.1,–,–,–,–,–,–,–,–,–
O=C1Nc2cc(Cl)ccc2Nc2cscc21 [NCGC00167991-01],-75,YES,-3,–,–,–,–,-57,-3,50.1,–,–,-66,-2.2,79.4,–,–,–,–
Cl.O=S(=O)(Nc1nccs1)c1ccc(NCc2cc(Cl)ccc2O)cc1 [NCGC00273561-01],-48,YES,-2.4,50.1,–,–,–,-36,4,–,–,–,-27,-1.4,20,–,–,–,"Confirm? (counterscreen) ([2]; counterscreen, YES/NO): YES"
CC(C)c1nc(Nc2nc3ccccc3o2)nc2c1CCCC2.O=C(O)C(F)(F)F [NCGC00188040-01],–,–,–,–,–,–,–,–,–,–,4,-29,-19,–,6.3,-2.4,-36,22.4,"Curve Class [1, 16]: -1.4; Confirm? (counterscreen) [2, 17]: YES"
Nc1cccc2c1C(=O)N(C1CCC(=O)NC1=O)C2=O (stereo not shown) [NCGC00346551-01],–,–,–,–,–,–,–,–,–,–,-2.2,-78,-43,-2.2,21.5,-2.1,-91,44.7,"Confirm? (confirmatory screen) [1, 18]: YES; IC50 [1, 19]: 50.1 µM"
CS(=O)(=O)c1ccc(C(=O)OCC(=O)N2CCC(Cc3ccccc3)CC2)cc1[N+](=O)[O-] [NCGC00188541-01],–,–,–,–,-25,–,0.7,–,–,–,–,–,–,–,–,–,–,–,CONFIRMATORY SCREEN Efficacy (%) ([1]; confirmatory screen): -18%; CONFIRMATORY SCREEN Curve Class ([1]; confirmatory screen): 4; COUNTERSCREEN Efficacy (%) ([2]; counterscreen): -22%; COUNTERSCREEN Curve Class ([2]; counterscreen): 4
COC[C@H]1OC(=O)c2coc3c2[C@@]1(C)C1=C(C3=O)[C@@H]2CCC(=O)[C@@]2(C)C[C@H]1OC(C)=O [NCGC00163485-03],–,–,–,28.2,–,–,–,-20,4,–,–,–,–,–,–,–,–,–,"Confirm? (counterscreen) ([2]; counterscreen, YES/NO): YES"
CN1CCC(N(Cc2cccs2)c2ccccc2)CC1 [NCGC00183847-01],–,–,–,–,–,–,–,–,–,–,–,–,-43,-2.4,39.8,–,–,–,CONFIRMATORY SCREEN Efficacy (%) ([1]; confirmatory screen): 0%; CONFIRMATORY SCREEN Curve Class ([1]; confirmatory screen): 4; COUNTERSCREEN Efficacy (%) ([2]; counterscreen): -12%; COUNTERSCREEN Curve Class ([2]; counterscreen): 4
COc1cc(Nc2c(C#N)cnc3cc(OCCCN4CCN(C)CC4)c(OC)cc23)c(Cl)cc1Cl [NCGC00241107-05],-73,YES,-2.2,44.7,-33,-2.2,50.1,-37,-1.4,20,–,–,–,–,–,–,–,–,–
COC(=O)c1ccc(O)c2ncc(-c3ccc(C(=O)NCCCN(C)C)cc3)cc12.O=C(O)C(F)(F)F [NCGC00189510-01],–,–,–,–,-71,-2.2,44.7,–,–,–,4,-26,–,–,–,3,226,89.1,–
O=C(O)C(F)(F)F.O=S(=O)(Nc1ccc(N2CCNCC2)cc1)c1ccc(NCc2ccc(Br)cc2O)cc1 [NCGC00343874-01],–,–,–,–,–,–,–,–,–,–,-2.4,-41,-76,-2.2,79.4,-2.2,-58,44.7,"Confirm? (confirmatory screen) [1, 18]: YES"
COc1cccc(C(=O)c2no[n+]([O-])c2C(=O)c2cccc(OC)c2)c1 [NCGC00351157-02],–,–,–,–,–,–,–,–,–,–,-1.4,-52,-53,–,22.2,-1.2,-60,17.8,"Confirm? (confirmatory screen) [1, 18]: YES; IC50 [1, 19]: 12.6 µM"
O=C(O)Cc1ccc(CCNS(=O)(=O)c2ccc(Cl)cc2)cc1 [NCGC00165787-03],–,–,–,–,-61,-2.2,79.4,–,–,–,–,–,–,–,–,–,–,–,CONFIRMATORY SCREEN Efficacy (%) ([1]; confirmatory screen): 14%; CONFIRMATORY SCREEN Curve Class ([1]; confirmatory screen): 4; COUNTERSCREEN Efficacy (%) ([2]; counterscreen): 0%; COUNTERSCREEN Curve Class ([2]; counterscreen): 4
COP(=S)(OC)SCN1C(=O)c2ccccc2C1=O [NCGC00080392-05],-50,YES,-2.2,50.1,-50,-1.2,17.8,-33,-2.4,44.7,–,–,–,–,–,–,–,–,–
Nc1ccc(CNc2ccc(S(=O)(=O)Nc3nccs3)cc2)c(O)c1.O=C(O)C(F)(F)F [NCGC00273962-01],-75,YES,-3,89.1,–,–,–,-61,-2.2,50.1,–,–,-29,–,39.8,–,–,–,"Curve Class [1, 16]: -2.4"
O=C(O)C(F)(F)F.O=C1CCCC2=C1C(c1ncccc1C(F)(F)F)N=C(Nc1nc3ccccc3o1)N2 (stereo not shown) [NCGC00189070-01],–,–,–,–,–,–,–,–,–,–,4,-19,-47,-2.2,39.8,-2.4,-41,28.2,"Confirm? (counterscreen) [2, 17]: YES"
